Source: the kinase profiling compilation of Christmann-Franck et al. (2016)

What was measured:
Experiment in all cases: radiometric filter-binding kinase assay
[1] = target: MAPK12 (human) (UniProt P53778)
[2] = target: PLK1 (human) (UniProt P53350)
[3] = target: CHEK1 (human) (UniProt O14757)
[4] = target: SRPK1 (human) (UniProt Q96SB4)
[5] = target: DYRK1A (human) (UniProt Q13627)
[6] = target: PAK7 (human) (UniProt Q9P286)
[7] = target: NEK2 (human) (UniProt P51955); conditions: compound 0.1 µM
[8] = target: HIPK3 (human) (UniProt Q9H422); conditions: compound 0.1 µM
[9] = target: CAMKK2 (human) (UniProt Q96RR4)
[10] = target: MAPK14 (human) (UniProt Q16539)
[11] = target: MARK1 (human) (UniProt Q9P0L2)
[12] = target: EPHA4 (human) (UniProt P54764)
[13] = test system: AKT2 (human), P31751 [S474D]
[14] = target: MAPKAPK2 (human) (UniProt P49137)
[15] = target: CSNK1D (human) (UniProt P48730)
[16] = target: MAP3K7 TAB1 (human) (UniProt Q15750+O43318)
[17] = target: MST4 (human) (UniProt Q9P289)
[18] = target: RPS6KA5 KD1 KD2 (human) (UniProt O75582)
[19] = target: NEK6 (human) (UniProt Q9HC98)
[20] = target: IRAK4 (human) (UniProt Q9NWZ3)
[21] = test system: SGK1 (human), O00141 [S422D]; conditions: compound 1.0 µM
[22] = target: MARK2 (human) (UniProt Q7KZI7)
[23] = test system: PAK2 (human), Q13177 [T402E]
[24] = target: CLK2 (human) (UniProt P49760)
[25] = target: RIPK2 (human) (UniProt O43353); conditions: compound 1.0 µM
[26] = target: MAPK15 (human) (UniProt Q8TD08)
[27] = target: IGF1R (human) (UniProt P08069); conditions: compound 1.0 µM
[28] = target: PKN2 (human) (UniProt Q16513)
[29] = target: PAK6 (human) (UniProt Q9NQU5)
[30] = target: MAPK3 (human) (UniProt P27361)
[31] = target: IKBKE (human) (UniProt Q14164)
[32] = target: PIM3 (human) (UniProt Q86V86)
[33] = target: PAK4 (human) (UniProt O96013)
[34] = target: PIM2 (human) (UniProt Q9P1W9)
[35] = target: RPS6KA3 KD1 KD2 (human) (UniProt P51812)

Chain of MAP3K7 TAB1 (human) (O43318 whole entry, looked up): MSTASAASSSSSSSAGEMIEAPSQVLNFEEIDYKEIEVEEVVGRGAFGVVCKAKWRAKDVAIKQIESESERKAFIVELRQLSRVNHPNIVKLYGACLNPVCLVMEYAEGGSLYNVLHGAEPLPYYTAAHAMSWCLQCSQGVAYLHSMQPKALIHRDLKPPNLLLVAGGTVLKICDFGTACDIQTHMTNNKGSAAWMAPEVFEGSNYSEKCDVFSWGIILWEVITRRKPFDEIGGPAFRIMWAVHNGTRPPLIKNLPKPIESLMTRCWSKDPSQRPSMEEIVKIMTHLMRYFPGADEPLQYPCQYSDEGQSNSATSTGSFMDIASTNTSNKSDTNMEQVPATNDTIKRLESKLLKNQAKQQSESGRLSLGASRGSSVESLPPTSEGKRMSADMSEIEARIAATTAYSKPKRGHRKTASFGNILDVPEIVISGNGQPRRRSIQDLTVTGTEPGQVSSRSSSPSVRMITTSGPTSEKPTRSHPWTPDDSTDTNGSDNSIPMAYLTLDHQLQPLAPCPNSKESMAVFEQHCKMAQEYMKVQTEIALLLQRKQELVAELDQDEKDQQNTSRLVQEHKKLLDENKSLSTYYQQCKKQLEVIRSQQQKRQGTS
Chain of MAP3K7 TAB1 (human) (Q15750 whole entry, looked up): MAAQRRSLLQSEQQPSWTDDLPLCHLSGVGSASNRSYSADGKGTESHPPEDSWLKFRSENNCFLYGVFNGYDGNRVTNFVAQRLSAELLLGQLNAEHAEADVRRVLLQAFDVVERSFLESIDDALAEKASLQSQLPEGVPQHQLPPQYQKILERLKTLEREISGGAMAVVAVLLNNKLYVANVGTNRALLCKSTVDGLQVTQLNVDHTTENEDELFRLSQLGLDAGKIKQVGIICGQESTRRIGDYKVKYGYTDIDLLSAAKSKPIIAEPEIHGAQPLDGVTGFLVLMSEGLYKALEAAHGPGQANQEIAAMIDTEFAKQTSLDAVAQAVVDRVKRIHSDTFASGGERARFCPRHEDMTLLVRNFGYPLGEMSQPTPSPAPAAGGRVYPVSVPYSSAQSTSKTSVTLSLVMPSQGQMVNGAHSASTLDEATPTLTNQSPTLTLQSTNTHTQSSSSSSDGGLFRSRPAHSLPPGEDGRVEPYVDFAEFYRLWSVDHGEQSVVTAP
Chain of RPS6KA5 KD1 KD2 (human) (O75582 whole entry, looked up): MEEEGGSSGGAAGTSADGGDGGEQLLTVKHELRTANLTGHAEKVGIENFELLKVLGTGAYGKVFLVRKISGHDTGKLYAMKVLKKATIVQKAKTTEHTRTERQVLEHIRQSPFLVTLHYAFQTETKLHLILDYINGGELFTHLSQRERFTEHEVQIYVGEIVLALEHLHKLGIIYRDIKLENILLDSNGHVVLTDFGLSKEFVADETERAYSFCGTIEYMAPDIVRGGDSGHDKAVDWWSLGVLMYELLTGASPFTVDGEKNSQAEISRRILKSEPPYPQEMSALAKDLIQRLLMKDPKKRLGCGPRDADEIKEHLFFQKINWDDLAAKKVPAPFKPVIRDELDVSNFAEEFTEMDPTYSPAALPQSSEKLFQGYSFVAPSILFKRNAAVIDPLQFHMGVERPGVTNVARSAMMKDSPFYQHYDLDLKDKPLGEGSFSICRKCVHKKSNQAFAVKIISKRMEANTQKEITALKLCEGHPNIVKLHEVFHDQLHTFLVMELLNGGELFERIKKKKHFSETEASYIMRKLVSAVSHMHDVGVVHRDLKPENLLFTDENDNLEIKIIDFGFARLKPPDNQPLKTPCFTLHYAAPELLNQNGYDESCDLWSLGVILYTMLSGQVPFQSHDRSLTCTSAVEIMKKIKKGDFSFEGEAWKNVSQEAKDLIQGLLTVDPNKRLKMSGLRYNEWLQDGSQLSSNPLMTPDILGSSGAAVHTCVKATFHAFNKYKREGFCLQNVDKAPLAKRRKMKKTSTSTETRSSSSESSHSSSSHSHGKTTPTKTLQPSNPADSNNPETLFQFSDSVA
Chain of MAPK15 (human) (Q8TD08 whole entry, looked up): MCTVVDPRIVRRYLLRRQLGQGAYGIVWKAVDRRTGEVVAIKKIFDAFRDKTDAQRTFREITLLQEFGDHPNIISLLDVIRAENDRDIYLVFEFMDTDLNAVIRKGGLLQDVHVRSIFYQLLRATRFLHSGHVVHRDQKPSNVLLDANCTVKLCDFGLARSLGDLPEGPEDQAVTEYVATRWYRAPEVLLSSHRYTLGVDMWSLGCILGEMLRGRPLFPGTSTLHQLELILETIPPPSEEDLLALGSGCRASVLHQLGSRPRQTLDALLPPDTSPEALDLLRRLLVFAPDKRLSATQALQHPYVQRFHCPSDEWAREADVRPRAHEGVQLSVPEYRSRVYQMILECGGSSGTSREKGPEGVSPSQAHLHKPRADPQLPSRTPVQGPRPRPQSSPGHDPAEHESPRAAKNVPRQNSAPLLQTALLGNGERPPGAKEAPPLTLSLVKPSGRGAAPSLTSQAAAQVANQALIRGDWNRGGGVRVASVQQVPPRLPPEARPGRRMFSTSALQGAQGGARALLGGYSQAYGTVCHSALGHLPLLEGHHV
Chain of CHEK1 (human) (O14757 whole entry, looked up): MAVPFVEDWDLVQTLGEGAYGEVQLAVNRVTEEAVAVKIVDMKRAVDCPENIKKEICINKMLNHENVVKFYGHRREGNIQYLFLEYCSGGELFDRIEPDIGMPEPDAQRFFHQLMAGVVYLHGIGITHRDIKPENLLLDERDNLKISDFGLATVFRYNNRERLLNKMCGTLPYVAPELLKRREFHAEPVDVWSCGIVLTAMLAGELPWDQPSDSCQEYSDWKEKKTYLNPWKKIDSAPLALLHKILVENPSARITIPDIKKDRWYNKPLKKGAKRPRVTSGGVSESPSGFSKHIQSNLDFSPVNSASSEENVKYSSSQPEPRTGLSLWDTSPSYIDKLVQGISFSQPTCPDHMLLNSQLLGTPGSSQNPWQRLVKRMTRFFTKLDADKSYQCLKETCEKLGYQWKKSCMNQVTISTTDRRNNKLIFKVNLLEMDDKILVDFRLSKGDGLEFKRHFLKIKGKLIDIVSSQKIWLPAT
Chain of SRPK1 (human) (Q96SB4 whole entry, looked up): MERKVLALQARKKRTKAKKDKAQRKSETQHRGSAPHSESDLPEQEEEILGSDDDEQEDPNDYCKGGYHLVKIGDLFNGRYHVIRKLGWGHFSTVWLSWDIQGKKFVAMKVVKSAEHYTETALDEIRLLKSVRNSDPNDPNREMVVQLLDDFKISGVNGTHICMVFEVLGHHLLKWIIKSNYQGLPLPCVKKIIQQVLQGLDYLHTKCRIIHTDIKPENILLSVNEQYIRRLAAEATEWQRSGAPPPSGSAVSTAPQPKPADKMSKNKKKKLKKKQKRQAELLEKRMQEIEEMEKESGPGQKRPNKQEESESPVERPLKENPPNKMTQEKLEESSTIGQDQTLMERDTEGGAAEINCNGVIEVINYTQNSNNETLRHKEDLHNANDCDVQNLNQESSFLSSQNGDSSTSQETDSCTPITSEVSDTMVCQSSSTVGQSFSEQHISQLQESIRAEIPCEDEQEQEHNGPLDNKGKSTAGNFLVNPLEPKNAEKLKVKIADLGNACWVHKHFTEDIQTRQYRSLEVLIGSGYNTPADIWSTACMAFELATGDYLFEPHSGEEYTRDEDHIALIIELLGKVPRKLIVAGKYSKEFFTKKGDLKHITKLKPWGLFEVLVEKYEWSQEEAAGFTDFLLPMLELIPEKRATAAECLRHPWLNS
Chain of MAPK12 (human) (P53778 whole entry, looked up): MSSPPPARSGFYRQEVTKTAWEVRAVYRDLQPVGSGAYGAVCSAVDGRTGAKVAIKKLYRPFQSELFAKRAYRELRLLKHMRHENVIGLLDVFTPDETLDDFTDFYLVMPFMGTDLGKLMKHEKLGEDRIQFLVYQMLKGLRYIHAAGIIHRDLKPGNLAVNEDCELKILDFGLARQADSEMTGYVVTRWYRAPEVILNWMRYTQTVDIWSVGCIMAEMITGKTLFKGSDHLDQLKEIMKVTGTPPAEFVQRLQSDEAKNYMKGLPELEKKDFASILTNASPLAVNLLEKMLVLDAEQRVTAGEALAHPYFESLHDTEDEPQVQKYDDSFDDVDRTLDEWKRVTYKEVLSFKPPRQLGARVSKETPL
Chain of CSNK1D (human) (P48730 whole entry, looked up): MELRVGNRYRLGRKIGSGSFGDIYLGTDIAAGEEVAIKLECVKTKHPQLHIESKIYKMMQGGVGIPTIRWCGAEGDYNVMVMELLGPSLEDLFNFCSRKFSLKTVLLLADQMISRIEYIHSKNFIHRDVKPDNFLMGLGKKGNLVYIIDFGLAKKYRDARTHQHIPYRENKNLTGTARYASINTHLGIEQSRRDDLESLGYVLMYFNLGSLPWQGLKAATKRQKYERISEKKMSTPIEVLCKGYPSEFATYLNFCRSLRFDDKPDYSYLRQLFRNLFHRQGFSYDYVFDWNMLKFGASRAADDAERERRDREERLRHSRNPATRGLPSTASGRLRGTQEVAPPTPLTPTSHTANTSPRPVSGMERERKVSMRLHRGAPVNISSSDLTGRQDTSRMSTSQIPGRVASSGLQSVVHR

Structure (SMILES): CN(C)C/C=C/C(=O)Nc1cccc(C(=O)Nc2ccc(Nc3nccc(-c4cccnc4)n3)cc2)c1
- residual activity ([1]; compound 0.1 µM): 90%
- residual activity ([1]; compound 1.0 µM): 103%
- residual activity ([2]; compound 0.1 µM): 91%
- residual activity ([2]; compound 1.0 µM): 106%
- residual activity ([3]; compound 0.1 µM): 74%
- residual activity ([3]; compound 1.0 µM): 88%
- residual activity ([4]; compound 0.1 µM): 105%
- residual activity ([4]; compound 1.0 µM): 104%
- residual activity ([5]; compound 0.1 µM): 97%
- residual activity ([5]; compound 1.0 µM): 85%
- residual activity ([6]; compound 0.1 µM): 89%
- residual activity ([6]; compound 1.0 µM): 91%
- residual activity [7]: 93%
- residual activity [8]: 113%
- residual activity ([9]; compound 0.1 µM): 87%
- residual activity ([9]; compound 1.0 µM): 35%
- residual activity ([10]; compound 0.1 µM): 98%
- residual activity ([10]; compound 1.0 µM): 113%
- residual activity ([11]; compound 0.1 µM): 91%
- residual activity ([11]; compound 1.0 µM): 80%
- residual activity ([12]; compound 0.1 µM): 92%
- residual activity ([12]; compound 1.0 µM): 105%
- residual activity ([13]; compound 0.1 µM): 93%
- residual activity ([13]; compound 1.0 µM): 106%
- residual activity ([14]; compound 0.1 µM): 91%
- residual activity ([14]; compound 1.0 µM): 106%
- residual activity ([15]; compound 0.1 µM): 63%
- residual activity ([15]; compound 1.0 µM): 33%
- residual activity ([16]; compound 0.1 µM): 67%
- residual activity ([16]; compound 1.0 µM): 39%
- residual activity ([17]; compound 0.1 µM): 98%
- residual activity ([17]; compound 1.0 µM): 104%
- residual activity ([18]; compound 0.1 µM): 88%
- residual activity ([18]; compound 1.0 µM): 91%
- residual activity ([19]; compound 0.1 µM): 88%
- residual activity ([19]; compound 1.0 µM): 96%
- residual activity ([20]; compound 0.1 µM): 86%
- residual activity ([20]; compound 1.0 µM): 88%
- residual activity [21]: 105%
- residual activity ([22]; compound 0.1 µM): 94%
- residual activity ([22]; compound 1.0 µM): 85%
- residual activity ([23]; compound 0.1 µM): 102%
- residual activity ([23]; compound 1.0 µM): 93%
- residual activity ([24]; compound 0.1 µM): 49%
- residual activity ([24]; compound 1.0 µM): 18%
- residual activity [25]: 42%
- residual activity ([26]; compound 0.1 µM): 46%
- residual activity ([26]; compound 1.0 µM): 20%
- residual activity [27]: 102%
- residual activity ([28]; compound 0.1 µM): 99%
- residual activity ([28]; compound 1.0 µM): 92%
- residual activity ([29]; compound 0.1 µM): 87%
- residual activity ([29]; compound 1.0 µM): 103%
- residual activity ([30]; compound 0.1 µM): 110%
- residual activity ([30]; compound 1.0 µM): 109%
- residual activity ([31]; compound 0.1 µM): 97%
- residual activity ([31]; compound 1.0 µM): 98%
- residual activity ([32]; compound 0.1 µM): 97%
- residual activity ([32]; compound 1.0 µM): 84%
- residual activity ([33]; compound 0.1 µM): 84%
- residual activity ([33]; compound 1.0 µM): 66%
- residual activity ([34]; compound 0.1 µM): 96%
- residual activity ([34]; compound 1.0 µM): 102%
- residual activity ([35]; compound 0.1 µM): 80%
- residual activity ([35]; compound 1.0 µM): 80%
